# In patent US8937078B2, “Quinazolinones as prolyl hydroxylase inhibitors” (Janssen Pharmaceutica NV, priority 2009, dated 2015):
# Experiments:
# [1] = tested on: Hep-3B cells; experiment: Cellular assay: erythropoietin secretion in Hep-3B cells; format: cell-based, human; settings: Homo sapiens, Hep3B, 100 μM compound, 24 hours, percent of EPO secretion relative to assay control compound 7-[(4-Chloro-phenyl)-(5-methyl-isoxazol-3-ylamino)-methyl]-quinolin-8-ol, read-out: Cellular % EPO Stimulation
# Method: Hep-3B cells (ATCC, Manassas, Va.) were plated in 96-well plates at 20,000 cells per well in 100 μl of DMEM containing 10% fetal bovine serum, 1% non-essential amino acids, 50 IU/mL of penicillin and 50 μg/mL of streptomycin (all cell culture reagents from Invitrogen, Carlsbad, Calif.). Twenty-four hours after plating, compounds were added and incubated for an additional 24 hours. All compounds were tested under saturating conditions with final compound concentrations at 100 μM. Fifty microliters of the supernatant was then transferred to a human Hypoxia assay kit (Meso-Scale Discovery, Gaithersburg, Md.). Erythropoietin in the supernatant was detected according to the manufacturer's instructions as follows. EPO detection plates were blocked with 3% BSA in PBS overnight and 50 μl of the supernatant was incubated at room temperature in an orbital shaker for 2 h. Twenty-five microliters of 0.5 μg/ml anti-EPO detection antibody was added for 2 hours at room temperature in an orbital shaker. After 3 washes in PBS, 150 μl of 1× read buffer is added and the plate is then read on the MSD SECTOR instrument.
# [2] = molecular target: T1, human PHD2 (PHD2181-417) (Homo sapiens, UniProt Q9GZT9); experiment: PHD enzymatic assay ([14C]-succinic acid production); format: biochemical; settings: PHD2181-417, HIF-1α peptide 10 μM, average of results; read-out: Enzyme pIC50 (converted)
# T1 construct: Smt (SUMO) tag (cleaved yes); made in house; host or cells: E. coli BL21 (pBAD vector)
# Method: Protein production was achieved by expression in BL21 cells grown in Terrific Broth containing 100 μg/ml ampicillin. Cell cultures were inoculated at 37° C. and grown to an OD600 of 0.8. Cultures were induced with 0.1% arabinose and grown overnight at 20° C. with continuous shaking at 225 rpm. Cells were then harvested by centrifugation and stored at −80° C. Cell pellets were suspended in Buffer A (50 mM Tris-HCl pH 7.2, 100 mM NaCl, 100 mM L-arginine, 1 mM TCEP, 0.05% (w/v) NP-40, 50 mM imidazole) followed by the addition of lysozyme and benzonase. Cells were lysed by sonication and the lysate was cleared by centrifugation (15,000 rpm, 90 min, 4° C.). The protein was purified by nickel affinity chromatography using a HisTrap Crude FF column (GE Healthcare). Samples were eluted in Buffer A with a 50-200 mM imidazole gradient. […] The flow-through was then dialyzed into 50 mM MES pH 6.0, 1 mM TCEP, 5 mM NaCl for ion exchange chromatography on a HiTrap SP Cation Exchange column (GE Healthcare). […] Fractions were pooled for further purification by size exclusion chromatography over a Superdex 75 Size Exclusion Column (GE Healthcare). Final protein was concentrated to 4 mg/ml and dialyzed in 10 mM PIPES pH 7.0, 100 mM NaCl, 0.5 mM TCEP.
# (10 μM, California Peptide Research Inc., Napa, Calif.), and [5-^14C]-2-oxoglutaric acid (50 mCi/mmol, Moravek Chemicals, Brea, Calif.) in reaction buffer (40 mM Tris-HCl, pH 7.5, 0.4 mg/ml catalase, 0.5 mM DTT, 1 mM ascorbate) for 10 minutes. The reaction was stopped by addition of 50 μl of 70 mM H3PO4 and 50 μl of 500 mM NaH2PO4, pH3.2. Detection of [^14C]-succinic acid was achieved by separating from [5-^14C]-2-oxoglutaric acid by incubating the reaction mixture with 100 μl of 0.16 M DNP prepared in 30% perchloric acid. Next, 50 μl of unlabeled 20 mM 2-oxoglutaric acid/20 mM succinic acid, serving as carrier for the radioactivity, was added to the mixture, and was allowed to proceed for 30 minutes at room temperature. The reaction was then incubated with 50 μl of 1 M 2-oxoglutaric acid for 30 additional minutes at room temperature to precipitate the excess DNP. The reaction was then centrifuged at 2800×g for 10 minutes at room temperature to separate [^14C]-succinic acid in the supernatant from the precipitated [^14C]-dinitrophenylhydrazone. Fractions of the supernatant (400 μl) were counted using a beta counter (Beckman Coulter, Fullerton, Calif.).
# T1 sequence (Q9GZT9 181-417): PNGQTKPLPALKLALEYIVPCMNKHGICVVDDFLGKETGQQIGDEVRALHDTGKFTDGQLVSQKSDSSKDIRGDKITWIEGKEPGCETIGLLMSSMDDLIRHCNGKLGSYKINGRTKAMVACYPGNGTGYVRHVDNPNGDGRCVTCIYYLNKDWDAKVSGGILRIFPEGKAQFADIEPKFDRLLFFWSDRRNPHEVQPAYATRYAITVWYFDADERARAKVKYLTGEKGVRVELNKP
IC50 [2] [nM],Structure (SMILES),Emax at 100 µM [1] [%]
31.6,"O=C(O)c1cnn(-c2nc3cc(Cl)c(Oc4cccc5ccccc45)cc3c(=O)[nH]2)c1 [Example 53, 1-[7-Chloro-6-(naphthalen-1-yloxy)-4-oxo-3,4-dihydro-quinazolin-2-yl]-1H-pyrazole-4-carboxylic acid]",45
39.8,"O=C(O)c1cnn(-c2nc3cc(Cl)c(Oc4ccc5ccccc5c4)cc3c(=O)[nH]2)c1 [Example 54, 1-[7-Chloro-6-(naphthalen-2-yloxy)-4-oxo-3,4-dihydro-quinazolin-2-yl]-1H-pyrazole-4-carboxylic acid]",90
31.6,"O=C(O)c1cnn(-c2nc3cc(Cl)c(Oc4cccc5c4CCCC5)cc3c(=O)[nH]2)c1 [Example 55, 1-[7-Chloro-4-oxo-6-(5,6,7,8-tetrahydro-naphthalen-1-yloxy)-3,4-dihydro-quinazolin-2-yl]-1H-pyrazole-4-carboxylic acid]",25
20,"O=C(O)c1cnn(-c2nc3cc(F)c(Oc4cccc(F)c4)cc3c(=O)[nH]2)c1 [Example 56, 1-[7-Fluoro-6-(3-fluoro-phenoxy)-4-oxo-3,4-dihydro-quinazolin-2-yl]-1H-pyrazole-4-carboxylic acid]",68
20,"O=C(O)c1cnn(-c2nc3cc(F)c(Oc4cccc5ccccc45)cc3c(=O)[nH]2)c1 [Example 57, 1-[7-Fluoro-6-(naphthalen-1-yloxy)-4-oxo-3,4-dihydro-quinazolin-2-yl]-1H-pyrazole-4-carboxylic acid]",135
31.6,"O=C(O)c1cnn(-c2nc3cc(F)c(Oc4ccc5c(c4)CCC5)cc3c(=O)[nH]2)c1 [Example 58, 1-[7-Fluoro-6-(indan-5-yloxy)-4-oxo-3,4-dihydro-quinazolin-2-yl]-1H-pyrazole-4-carboxylic acid]",62
25.1,"Cc1cc2nc(-n3cc(C(=O)O)cn3)[nH]c(=O)c2cc1Oc1ccccc1 [Example 59, 1-(7-Methyl-4-oxo-6-phenoxy-3,4-dihydro-quinazolin-2-yl)-1H-pyrazole-4-carboxylic acid]",80
31.6,"O=C(O)c1cnn(-c2nc3ccc(Oc4cccc(Cl)c4Cl)cc3c(=O)[nH]2)c1 [Example 60, 1-[6-(2,3-dichloro-phenoxy)-4-oxo-3,4-dihydro-quinazolin-2-yl]-1H-pyrazole-4-carboxylic acid]",70
20,"COc1cc2nc(-n3cc(C(=O)O)cn3)[nH]c(=O)c2cc1Oc1c(C)cccc1C [Example 61, 1-[6-(2,6-Dimethyl-phenoxy)-7-methoxy-4-oxo-3,4-dihydro-quinazolin-2-yl]-1H-pyrazole-4-carboxylic acid]",86
39.8,"COc1cc2nc(-n3cc(C(=O)O)cn3)[nH]c(=O)c2cc1Oc1ccccc1 [Example 62, 1-(7-Methoxy-4-oxo-6-phenoxy-3,4-dihydro-quinazolin-2-yl)-1H-pyrazole-4-carboxylic acid]",7
20,"Cc1cccc(C)c1Oc1c(F)cc2nc(-n3cc(C(=O)O)cn3)[nH]c(=O)c2c1F [Example 63, 1-[6-(2,6-Dimethyl-phenoxy)-5,7-difluoro-4-oxo-3,4-dihydro-quinazolin-2-yl]-1H-pyrazole-4-carboxylic acid]",14
25.1,"O=C(O)c1cnn(-c2nc3cc(F)c(Oc4ccccc4)c(F)c3c(=O)[nH]2)c1 [Example 64, 1-(5,7-Difluoro-4-oxo-6-phenoxy-3,4-dihydro-quinazolin-2-yl)-1H-pyrazole-4-carboxylic acid]",22
25.1,"O=C(O)c1cnn(-c2nc3ccc(Oc4cccnc4)cc3c(=O)[nH]2)c1 [Example 65, 1-[4-Oxo-6-(pyridin-3-yloxy)-3,4-dihydro-quinazolin-2-yl]-1H-pyrazole-4-carboxylic acid]",42
